# In patent US20250170112A1, “ADENOSINE LIGANDS FOR THE TREATMENT OF NEUROLOGICAL DISORDERS” (Lucy Therapeutics, Inc., priority 2022, published 2025):
# Key:
# [1] = biological target: T1, human Adenosine A1 receptor (Homo sapiens, UniProt P30542); assay: GTPγS scintillation proximity assay, agonist testing; format: biochemical; conditions: agonist activity; membrane extracts of CHO-K1 cells expressing recombinant human A1; read-out: A1AR EC50
# T1 construct: host or cells: CHO-K1
# T1 sequence (P30542 1-326): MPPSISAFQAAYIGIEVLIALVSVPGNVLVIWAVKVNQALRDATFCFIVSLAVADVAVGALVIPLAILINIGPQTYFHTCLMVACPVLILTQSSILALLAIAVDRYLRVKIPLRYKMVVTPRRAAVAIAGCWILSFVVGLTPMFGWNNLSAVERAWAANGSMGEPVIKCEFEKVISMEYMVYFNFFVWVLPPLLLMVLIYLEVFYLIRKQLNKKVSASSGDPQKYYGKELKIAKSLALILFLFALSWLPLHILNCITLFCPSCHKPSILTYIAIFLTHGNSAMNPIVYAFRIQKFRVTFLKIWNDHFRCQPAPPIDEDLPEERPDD
# Procedure: (§1) SPA ^35S-GTPγS experiments were conducted with Epics Therapeutics membrane preparations. cAMP HTRF assays were conducted with recombinant cell lines.
# • Assay buffer: 20 mM HEPES pH 7.4; 100 mM NaCl, 10 μg/mL saponin, MgCl2 at optimized concentration for the specific receptor. • Membranes: membrane extracts prepared from CHO-K1 cells expressing recombinant human Adenosine A1 receptor, thawed on ice, diluted in assay buffer and kept on ice. • GDP: diluted in assay buffer at the optimized concentration for the specific receptor Beads: PVT-WGA (Perkin Elmer, RPNQ001), diluted in assay buffer at 50 mg/mL (0.5 mg/10 μL) • GTPγ^35S: (Perkin Elmer, NEG030X), diluted in assay buffer for a final 0.1 nM assay concentration
# Protocol for agonist testing: membranes are mixed with GDP (volume:volume). In parallel, GTPγ[^35S] is mixed with the beads (volume:volume) just before starting the reaction. The following reagents are successively added in the wells of an Optiplate (Perkin Elmer): 50 μL of test or reference ligand, 25 μL of the membranes:GDP mix, and 25 μL of the GTPγ[^35S]:beads mix. The plates are covered with a top seal, mixed on an orbital shaker for 2 min, and then incubated for 1 hour at room temperature. Then the plates are centrifuged for 10 min at 2000 rpm, incubated at room temperature and counted for 30 sec/well with a PerkinElmer TopCount™ reader. • Conditions for the GTPγS scintillation proximity assay are shown in Table 14.
# [2] = biological target: T2, human A2B (Homo sapiens, UniProt P29275); assay: cAMP HTRF assay for Gs coupled receptor, agonist test; format: cell-based; conditions: agonist activity; HEK293 cells expressing recombinant human A2B; read-out: A2BAR EC50
# T2 construct: expressed in transfected cells; host or cells: HEK293
# T2 sequence (P29275 1-332): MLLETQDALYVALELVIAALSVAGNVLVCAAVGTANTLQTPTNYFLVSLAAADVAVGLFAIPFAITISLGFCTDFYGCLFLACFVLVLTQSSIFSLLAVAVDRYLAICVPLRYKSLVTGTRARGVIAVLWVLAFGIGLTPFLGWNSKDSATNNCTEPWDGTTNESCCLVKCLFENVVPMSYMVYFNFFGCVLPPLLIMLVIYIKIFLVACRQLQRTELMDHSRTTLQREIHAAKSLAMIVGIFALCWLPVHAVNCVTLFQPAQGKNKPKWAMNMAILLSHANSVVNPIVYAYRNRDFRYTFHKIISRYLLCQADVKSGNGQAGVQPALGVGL
# Procedure: as §1
# Dose response curves are performed in parallel with the reference compounds.
# For agonist test (96 well): 12 μL of cells are mixed with 12 μL of the test compound at increasing concentrations and then incubated 30 min at room temperature. After addition of the lysis buffer containing cAMP-d2 and anti-cAMP cryptate detection reagents, plates are incubated 1 hour incubation at room temperature, and fluorescence ratios are measured according to the manufacturer specification, with the HTRF kit.
SMILES,EC50 [1],EC50 [2]
COCCOc1ccc(-c2c(C#N)c(SCC3COC3)nc(N3CCC3)c2C#N)cc1 [Compound 62],350 nM,≥ 10000 nM
"N#Cc1c(SCC2COC2)nc(N2CCC2)c(C#N)c1-c1ccc(OCCO)cc1 [Compound 63, 2-(Azetidin-1-yl)-4-[4-(2-hydroxyethoxy)phenyl]-6-(oxetan-3-ylmethylsulfanyl)pyridine-3,5-dicarbonitrile]",91 nM,2960 nM
COCCOc1ccc(-c2c(C#N)cnc(SCC3COC3)c2C#N)cc1 [Compound 64],281 nM,> 10000 nM
N#Cc1c(N)nc(SCc2cccnc2)c(C#N)c1-c1ccc(OCC(O)C(F)(F)F)cc1 (centres unmarked) [Compound 65],309 nM,1.9 nM
N#Cc1c(N)nc(SCc2cccnc2)c(C#N)c1-c1ccc(OC2COC2)cc1 [Compound 66],2.5 nM,0.2 nM
COCCOc1ccc(-c2c(C#N)c(N)nc(SCc3cccc4[nH]ccc34)c2C#N)cc1 [Compound 67],17.6 nM,> 10000 nM
COCCOc1ccc(-c2c(C#N)c(N)nc(SCC(=O)O)c2C#N)cc1 [Compound 68],> 10000 nM,4230 nM
Cc1ccc(CSc2nc(N3CCC3)c(C#N)c(-c3ccc(OCCO)cc3)c2C#N)cn1 [Compound 69],201 nM,26.3 nM
Cc1ccc(CSc2nc(N3CCCC3)c(C#N)c(-c3ccc(OCCO)cc3)c2C#N)cn1 [Compound 70],469 nM,209 nM
Cc1ccc(CSc2nc(N3CCC3)c(C#N)c(-c3ccc(OCCO)cc3)c2C#N)c(C)n1 [Compound 74],> 10000 nM,8100 nM
Cc1ncccc1CSc1nc(N2CCCC2)c(C#N)c(-c2ccc(OCCO)cc2)c1C#N [Compound 76],> 10000 nM,4370 nM
Cc1ncccc1CSc1nc(N2CCC2)c(C#N)c(-c2ccc(OCCO)cc2)c1C#N [Compound 77],> 10000 nM,2230 nM
CNC(=O)CSc1nc(N2CCC2)c(C#N)c(-c2ccc(OCCOC)cc2)c1C#N [Compound 78],643 nM,> 10000 nM
CNC(=O)CSc1nc(N2CCCC2)c(C#N)c(-c2ccc(OCCOC)cc2)c1C#N [Compound 79],1790 nM,45 nM
"COCCOc1ccc(-c2c(C#N)cnc(SCc3cccnc3)c2C#N)cc1 [Compound 83, 4-[4-(2-Methoxyethoxy)phenyl]-2-(3-pyridylmethylthio)-pyridine-3,5-dicarbonitrile]",282 nM,> 10000 nM
N#Cc1cnc(SCc2cccnc2)c(C#N)c1-c1ccc(OCCO)cc1 [Compound 84],44 nM,6.8 nM
COCCOc1ccc(-c2c(C#N)c(SCCO)nc(N3CCC3)c2C#N)cc1 [Compound 89],819 nM,> 10000 nM
N#Cc1c(SCCO)nc(N2CCC2)c(C#N)c1-c1ccc(OCCO)cc1 [Compound 90],347 nM,869 nM
N#Cc1c(N)nc(SCCOC(F)F)c(C#N)c1-c1ccc(OCCO)cc1 [Compound 93],109 nM,64 nM
COCCOc1ccc(-c2c(C#N)cnc(SCCO)c2C#N)cc1 [Compound 94],1010 nM,> 10000 nM
N#Cc1c(SCCO)nc(N2CCCC2)c(C#N)c1-c1ccc(OCCO)cc1 [Compound 95],276 nM,459 nM
N#Cc1c(SCCC(N)=O)nc(N2CCCC2)c(C#N)c1-c1ccc(OCCO)cc1 [Compound 96],> 10000 nM,97 nM
N#Cc1c(SCCC(F)(F)F)nc(N2CCCC2)c(C#N)c1-c1ccc(OCCO)cc1 [Compound 104],1790 nM,> 10000 nM
CC(O)CSc1nc(N2CCCC2)c(C#N)c(-c2ccc(OCCO)cc2)c1C#N (centres unmarked) [Compound 106],502 nM,> 10000 nM
COCCOc1ccc(-c2c(C#N)c(SCc3cccnc3)nc(N3CCCC3)c2C#N)cc1 [Compound 107],97 nM,> 10000 nM
N#Cc1c(N)nc(SCC2CCO2)c(C#N)c1-c1ccc(OCCO)cc1 (centres unmarked) [Compound 110],253 nM,177 nM

SMILES,EC50 [1],EC50 [2]
COCCOc1ccc(-c2c(C#N)c(N)nc(SCC3CCO3)c2C#N)cc1 (centres unmarked) [Compound 112],944 nM,> 10000 nM
N#Cc1c(N)nc(SCCC(F)(F)F)c(C#N)c1-c1ccc(OCCO)cc1 [Compound 113],316 nM,≥ 10000 nM
N#Cc1c(SCc2cccnc2)nc(N2CCCC2)c(C#N)c1-c1ccc(OCCO)cc1 [Compound 114],7.6 nM,18 nM
COCCOc1ccc(-c2c(C#N)c(SCc3cccnc3)nc(N3CCC3)c2C#N)cc1 [Compound 115],31 nM,> 10000 nM
N#Cc1c(SCc2cccnc2)nc(N2CCC2)c(C#N)c1-c1ccc(OCCO)cc1 [Compound 116],2.9 nM,3.9 nM
COCCOc1ccc(-c2c(C#N)c(SCCO)nc(N3CCCC3)c2C#N)cc1 [Compound 117],997 nM,> 10000 nM
CC(=O)NCCSc1nc(N)c(C#N)c(-c2ccc(OCCO)cc2)c1C#N [Compound 119],161 nM,925 nM
COCCOc1ccc(-c2c(C#N)c(N)nc(SCCNC(C)=O)c2C#N)cc1 [Compound 120],1000 nM,> 10000 nM
N#CCCSc1nc(N)c(C#N)c(-c2ccc(OCCO)cc2)c1C#N [Compound 121],327 nM,576 nM
COCCOc1ccc(-c2c(C#N)c(N)nc(SCCC#N)c2C#N)cc1 [Compound 122],1020 nM,> 10000 nM
COCCOc1ccc(-c2c(C#N)c(N)nc(SCC3COC3)c2C#N)cc1 [Compound 123],72 nM,> 10000 nM
N#Cc1c(N)nc(CCc2cccnc2)c(C#N)c1-c1ccc(OCCO)cc1 [Compound 125],> 10000 nM,468 nM
COCCOc1ccc(-c2c(C#N)c(N)nc(SCC(C)O)c2C#N)cc1 (centres unmarked) [Compound 127],91 nM,> 10000 nM
CNCCSc1nc(N)c(C#N)c(-c2ccc(OCCO)cc2)c1C#N [Compound 128],> 10000 nM,255 nM
N#Cc1c(N)nc(SCC(N)=O)c(C#N)c1-c1ccc(OCCO)cc1 [Compound 129],121 nM,6 nM
CN(C)CCSc1nc(N)c(C#N)c(-c2ccc(OCCO)cc2)c1C#N [Compound 132],> 10000 nM,645 nM
COCCOc1ccc(-c2c(C#N)c(N)nc(SCC(N)=O)c2C#N)cc1 [Compound 136],768 nM,87 nM
CN(C)C(=O)CSc1nc(N)c(C#N)c(-c2ccc(OCCO)cc2)c1C#N [Compound 138],891 nM,2460 nM
CNC(=O)CSc1nc(N)c(C#N)c(-c2ccc(OCCO)cc2)c1C#N [Compound 139],87 nM,4.5 nM
CNCCSc1nc(N)c(C#N)c(-c2ccc(OCCOC)cc2)c1C#N [Compound 140],7500 nM,> 10000 nM
N#Cc1c(N)nc(SCC2CCCO2)c(C#N)c1-c1ccc(OCCO)cc1 (centres unmarked) [Compound 141],569 nM,149 nM
CNC(=O)CSc1nc(N)c(C#N)c(-c2ccc(OCCOC)cc2)c1C#N [Compound 146],177 nM,59 nM
COCCOc1ccc(-c2c(C#N)c(N)nc(SCCOC)c2C#N)cc1 [Compound 147],55 nM,8560 nM
N#Cc1c(N)nc(SCc2ccccc2)c(C#N)c1-c1ccc(OCCO)cc1 [Compound 150],12 nM,4.2 nM
COCCSc1nc(N)c(C#N)c(-c2ccc(OCCO)cc2)c1C#N [Compound 151],61 nM,28 nM
COCCOc1ccc(-c2c(C#N)c(N)nc(SCc3ccccc3)c2C#N)cc1 [Compound 152],92 nM,> 10000 nM
